Here are results for 83 compounds from ChEMBL document CHEMBL3301361, “Experimental in vitro DMPK and physicochemical data on a set of publicly disclosed compounds”.

In general, fraction unbound refers to free concentration divided by total concentration. The low end stands for little free substance, the high end for much free substance.

A short description of the data set: in vitro. Conditions: human, plasma, PPB.

On to `CCCc1cc(C2=N[C@@H](C(=O)NO)CO2)cc(OC)c1OC`, for which the fraction unbound at 5 h is 0.0568.

On to `Cc1cnc(Nc2nc(N[C@@H](C)c3ncc(F)cn3)nc(N3CCOCC3)c2F)s1`, for which the fraction unbound at 5 h was 0.069.

As for `Cc1cnc(Nc2cc(N3CCOCC3)nc(N[C@@H](C)c3ccc(F)cn3)n2)s1`, the free fraction (fraction unbound) at 5 h is 0.0262.

Compound `CN[C@@H](C)C(=O)N[C@H](C(=O)N1CCC[C@H]1C(=O)N[C@@H]1CCCc2ccccc21)C(C)(C)C` showed a fraction unbound at 5 h of 0.0801.

For `COc1cccc(-c2cc3c(N[C@H]4CCCNC4)ncc(C(N)=O)c3s2)c1`, the free fraction (fraction unbound) at 5 h is 0.0437.

Regarding `O=C(/C=C/c1ccccc1Cl)Nc1ccc2c(c1)C(=O)NC2=O`, the fraction unbound at 5 h is 0.0948.

As to `O=C(COc1ccccc1Cl)c1ccc[nH]1`, the unbound share (fraction unbound) at 5 h was 0.0676.

As for `CC(=O)NCc1cccc(C(=O)O)c1`, the fraction unbound at 5 h is 0.17.

For `C=CC1(C)CC(=O)C2(O)C(C)(O1)C(OC(C)=O)C(O)C1C(C)(C)CCC(O)C12C` (stereo not drawn), the free fraction (fraction unbound) at 5 h was 0.16.

Compound `COc1cnc(-c2ccccn2)nc1N(C)C` showed an unbound share (fraction unbound) at 5 h of 0.163.

The compound `O=C(O)c1ccc2nc(C(F)(F)F)[nH]c2c1` showed an unbound share (fraction unbound) at 5 h of 0.101.

The compound `CNC(=O)c1[nH]cnc1C(=O)Nc1ccc(Cl)cc1` showed a fraction unbound at 5 h of 0.0268.

For `Cc1sc2c(c1C)c(=O)n(-c1ccc(F)cc1)c(=O)n2CC(=O)NCc1ccco1`, the free fraction (fraction unbound) at 5 h was 0.0268.

For the compound `NS(=O)(=O)c1ccc(N2N=C(c3ccc(Br)cc3)CC2c2ccc(F)cc2)cc1` (stereo not drawn), the free fraction (fraction unbound) at 5 h is 0.105.

As for `O=C(CCS(=O)(=O)c1ccc(Br)cc1)NCCc1ccccc1`, the free fraction (fraction unbound) at 5 h is 0.04.

As for `O=C(c1ccccc1)N1CCC(c2nc3ccccc3o2)CC1`, the fraction unbound at 5 h was 0.0457.

As for `CCOC(=O)[C@H](CCc1ccccc1)N[C@@H](C)C(=O)N1Cc2ccccc2C[C@H]1C(=O)O`, the unbound share (fraction unbound) at 5 h is 0.0418.

`Cc1nccn1-c1ccc(COc2cc(F)cc(C3(C(N)=O)CCOCC3)c2)cc1` gave a fraction unbound at 5 h of 0.101.

As for `C[C@H](Nc1ncc(Cl)c(Nc2cc(C3CC3)[nH]n2)n1)c1ncc(F)cn1`, the unbound share (fraction unbound) at 5 h was 0.0568.

With `Cc1cc(Nc2nc(N[C@@H](C)c3ncc(F)cn3)nc(N3CCOCC3)c2F)n[nH]1`, the fraction unbound at 5 h is 0.0836.

Consider `CCOc1cc2nnc(C(N)=O)c(Nc3ccc(F)cc3F)c2cc1N1CCN(C)CC1`, for which the fraction unbound at 5 h was 0.0383.

For `C[C@H]1CN(Cc2cc(Cl)ccc2OCC(=O)O)CCN1S(=O)(=O)c1ccccc1`, the free fraction (fraction unbound) at 5 h is 0.0274.

`COc1ccc2c(c1)N(CCN1CCC(NCc3cc4c(cn3)OCCO4)CC1)C(=O)CS2` had a fraction unbound at 5 h of 0.0948.

`CC(=O)Nc1cccc2c1c(Oc1ccc(Cl)cc1)c(C)n2CC(=O)O` had a fraction unbound at 5 h of 0.124.

`CC(C)c1ccc(/C=N/NC(=O)c2ccc(O)cc2)cc1` had an unbound share (fraction unbound) at 5 h of 0.0568.

Regarding `CN[C@@H](C)C(=O)N[C@H](C(=O)N[C@H]1CCCN([C@@H]2CCCc3ccccc32)C1)C1CCCCC1`, the fraction unbound at 5 h was 0.0676.

`CN[C@@H](C)C(=O)N[C@H](C(=O)N[C@H]1CCCN(CCc2ccc(F)cc2)C1)C(C)(C)C` gave a free fraction (fraction unbound) at 5 h of 0.0784.

The compound `CN[C@@H](C)C(=O)N[C@H](C(=O)N[C@H]1CCCN(CCc2ccc(Cl)cc2)C1)C(C)(C)C` showed a free fraction (fraction unbound) at 5 h of 0.0293.

Compound `COc1cc(OC)c(S(=O)(=O)N2c3ccccc3CC2C)cc1NC(C)=O` (stereo not drawn) gave a free fraction (fraction unbound) at 5 h of 0.0437.

Compound `COc1cc(OC)c(S(=O)(=O)N2c3ccccc3CCC2C)cc1NC(=O)CCC(=O)O` (stereo not drawn) showed a fraction unbound at 5 h of 0.186.

`COc1cc(OC)c(S(=O)(=O)N2c3ccccc3CCC2C)cc1NC(=O)CSCC(=O)O` (stereo not drawn) showed a fraction unbound at 5 h of 0.126.

`COc1cc(OC)c(S(=O)(=O)N2c3ccccc3CCC2C)cc1NC(=O)CSc1ccncc1` (stereo not drawn) gave a fraction unbound at 5 h of 0.0293.

`COc1cc(OC)c(S(=O)(=O)NCc2ccccc2N2CCC(CO)CC2)cc1NC(C)=O` showed a fraction unbound at 5 h of 0.126.

`COc1cc(OC)c(S(=O)(=O)NCc2ccccc2N2CCC(COC(=O)CCC(=O)O)CC2)cc1NC(=O)CCC(=O)O` had a free fraction (fraction unbound) at 5 h of 0.151.

In turn, `COc1cc(OC)c(S(=O)(=O)NCc2ccccc2N2CCC(C(=O)O)CC2)cc1NC(=O)CCC(=O)O` had a fraction unbound at 5 h of 0.194.

`COc1cc(OC)c(S(=O)(=O)NCc2ccccc2N2CCC(CC(=O)O)CC2)cc1NC(=O)CCC(=O)O` gave a fraction unbound at 5 h of 0.0872.

Take `Cc1nccn1-c1ccc(Sc2cccc(C3(C(N)=O)CCOCC3)c2)cc1`: the fraction unbound at 5 h was 0.069.

With `NC(=O)[C@H](Cc1ccccc1)NC(=O)OCc1ccccc1`, the fraction unbound at 5 h was 0.19.

`CCNC(=O)c1cc2c(-n3ccc(C(F)(F)F)n3)c(-c3cncc(C(=O)O)c3)cnc2[nH]1` gave a fraction unbound at 5 h of 0.117.

As for `CCCNC(=O)c1cc2c(-n3ccc(C(F)(F)F)n3)c(-c3cncc(C(=O)O)c3)cnc2[nH]1`, the unbound share (fraction unbound) at 5 h is 0.0768.

Compound `CCNC(=O)c1cc2c(-n3ccc(C(F)(F)F)n3)c(-c3cncc(C(=O)NC)c3)cnc2[nH]1` showed a fraction unbound at 5 h of 0.148.

`CCNC(=O)c1cc2c(-n3ccc(C(F)(F)F)n3)c(-c3cncc(-c4n[nH]c(=O)o4)c3)cnc2[nH]1` showed a fraction unbound at 5 h of 0.0437.

`CC(=O)Nc1ccc2c(c1)N(c1cc(NC3CC3)n3ncc(C#N)c3n1)CCO2` showed an unbound share (fraction unbound) at 5 h of 0.0752.

Regarding `CC(=O)Nc1ccc2c(c1)N(c1cc(NC3CC3)n3ncc(C#N)c3n1)CCC2`, the free fraction (fraction unbound) at 5 h was 0.0262.

`CC(=O)Nc1ccc2ccn(-c3cc(NCCN4CCOCC4)n4ncc(C#N)c4n3)c2c1`: the fraction unbound at 5 h was 0.112.

In turn, `COc1cnc(-c2ccccn2)nc1N1CCCCC1` gave a fraction unbound at 5 h of 0.0488.

In turn, `CC(C)(C)Oc1ccc(C(=O)Nc2ccc3sc(CO)nc3c2)cc1` showed a free fraction (fraction unbound) at 5 h of 0.051.

On to `COc1ccc2ncc(=O)n(CCN3CC[C@@H](NCc4cc5c(cn4)OCCO5)[C@@H](O)C3)c2c1`, for which the free fraction (fraction unbound) at 5 h is 0.142.

In turn, `COc1ccc2ncc(=O)n(CCN3CC[C@@H](NCc4cc5c(cn4)OCCO5)[C@H](O)C3)c2c1` gave an unbound share (fraction unbound) at 5 h of 0.179.

With `COc1ccc2ncc(=O)n(CCN3CC[C@@H](NCc4ccc5c(n4)NC(=O)CO5)[C@H](OC)C3)c2c1`, the free fraction (fraction unbound) at 5 h was 0.179.

For the compound `CCN(Cc1cccc2ccccc12)c1cc(N2CCOCC2)nc(=O)[nH]1`, the fraction unbound at 5 h is 0.0358.

As to `Cc1cn([C@H]2CCCN(Cc3ccc(C(=O)O)c(Oc4cccc(Cl)c4)c3)C2)c(=O)[nH]c1=O`, the fraction unbound at 5 h was 0.0268.

`Cc1cccc(Oc2cc(CN3CCC[C@H](n4cc(C)c(=O)[nH]c4=O)C3)ccc2C(=O)O)c1` had a fraction unbound at 5 h of 0.0383.

`CC(C)COc1ccc(-c2cc(=O)[nH]c(N)n2)cc1` had an unbound share (fraction unbound) at 5 h of 0.0374.

In the case of `CC(C)COc1ccc(-c2cc(=O)[nH]c(N)n2)cc1C#N`, the fraction unbound at 5 h was 0.0409.

With `COCCC(Oc1ncnc2c1cnn2-c1ccccc1OC)C(=O)Nc1ccc(C)cn1` (stereo not drawn), the fraction unbound at 5 h is 0.139.

`COc1cc(OC)c(S(=O)(=O)N2c3ccccc3CCC2C)cc1NC(=O)Cc1ccnc(F)c1` (stereo not drawn) had an unbound share (fraction unbound) at 5 h of 0.0544.

`COc1cc(OC)c(S(=O)(=O)N2c3ccccc3CCC2C)cc1NC(=O)CCc1nn[nH]n1` (stereo not drawn): the fraction unbound at 5 h is 0.0647.

`COc1ccc(-c2cc(O)nc(N)n2)cc1C#N` showed a fraction unbound at 5 h of 0.126.

Compound `Cc1cn([C@H]2CCCN(S(=O)(=O)c3cccc(Oc4ccccc4)c3)C2)c(=O)[nH]c1=O` had an unbound share (fraction unbound) at 5 h of 0.0262.

Regarding `Cc1cccc(Oc2cc(S(=O)(=O)N3CCC[C@H](n4cc(C)c(=O)[nH]c4=O)C3)ccc2C(=O)O)c1`, the free fraction (fraction unbound) at 5 h was 0.0568.

`COCCNC(=O)c1ccc(Nc2ncc3cc(-c4cnccc4C)ccc3n2)cc1` gave a free fraction (fraction unbound) at 5 h of 0.0262.

In turn, `c1cc(-c2ccc3nc(Nc4ccc(OCCN5CCCC5)cc4)ncc3c2)ccn1` had a fraction unbound at 5 h of 0.028.

Take `C[C@H](CO)Nc1nc(SCc2cccc(F)c2F)nc2[nH]ncc12`: the unbound share (fraction unbound) at 5 h was 0.035.

Turning to `CN(C)CCNc1cc(-c2ccncc2)nc2ccccc12`, the fraction unbound at 5 h was 0.142.

`CCOc1cc2ncc(C(N)=O)c(Nc3cc(F)ccc3F)c2cc1N1CCN(C)CC1` showed a free fraction (fraction unbound) at 5 h of 0.0736.

`CC(C)Oc1cc2ncc(C(N)=O)c(Nc3cccc(Cl)c3F)c2cc1N1CCN(C)CC1` showed a free fraction (fraction unbound) at 5 h of 0.0488.

In turn, `COCCOc1cc2ncc(C(N)=O)c(Nc3cccc(Cl)c3Cl)c2cc1N1CCN(C)CC1` gave an unbound share (fraction unbound) at 5 h of 0.103.

For `COc1cc2ncc(C(N)=O)c(Nc3cccc(Cl)c3Cl)c2cc1N1CCN(C)CC1`, the unbound share (fraction unbound) at 5 h is 0.0447.

`CN1CCN(c2ccc3ncc(C(N)=O)c(Nc4ccc(Cl)c(Cl)c4)c3c2)CC1` had an unbound share (fraction unbound) at 5 h of 0.0581.

Compound `CN1CCN(c2ccc3ncc(C(N)=O)c(Nc4cccc(Cl)c4Cl)c3c2)CC1` had an unbound share (fraction unbound) at 5 h of 0.0457.

With `CCOc1cc2ncc(C(N)=O)c(Nc3cccc(Cl)c3Cl)c2cc1N1CCN(C(C)=O)CC1`, the fraction unbound at 5 h was 0.0968.

On to `COCCOc1cc2ncc(C(N)=O)c(Nc3cc(C)ccc3F)c2cc1N1CCN(C)CC1`, for which the unbound share (fraction unbound) at 5 h was 0.163.

The compound `COc1cc2ncc(C(N)=O)c(Nc3ccc(Cl)cc3Cl)c2cc1N1CCN(C)CC1` showed an unbound share (fraction unbound) at 5 h of 0.0321.

In turn, `CN1CCN(c2cc3c(Nc4cccc(Cl)c4Cl)c(C(N)=O)cnc3cc2F)CC1` showed a fraction unbound at 5 h of 0.0437.

`COc1cc2ncc(C(N)=O)c(Nc3ccc(Cl)c(Cl)c3)c2cc1N1CCN(C)CC1` gave a free fraction (fraction unbound) at 5 h of 0.0358.

In the case of `CCOc1cc2ncc(C(N)=O)c(Nc3ccc(F)cc3F)c2cc1N1CCOCC1`, the fraction unbound at 5 h is 0.0836.

Turning to `CCOc1cc2ncc(C(N)=O)c(Nc3ccc(F)c(Cl)c3)c2cc1N1CCN(C)CC1`, the fraction unbound at 5 h was 0.0343.

Consider `CCOc1cc2ncc(C(N)=O)c(Nc3cccc(Cl)c3Cl)c2cc1N1CCN(CCO)CC1`, for which the fraction unbound at 5 h was 0.0477.

Turning to `CCOc1cc2ncc(C(N)=O)c(Nc3cccc(Cl)c3Cl)c2cc1N1CCN(C(=O)CO)CC1`, the free fraction (fraction unbound) at 5 h was 0.163.

Compound `CCOc1cc2ncc(C(N)=O)c(Nc3ccc(F)cc3F)c2cc1N1CCN(CC)CC1` showed a fraction unbound at 5 h of 0.0457.

As to `O=C(NCC12CC3CC(CC(C3)C1)C2)c1cc(OCCNCCCO)ncc1Cl`, the fraction unbound at 5 h is 0.11.

In turn, `CN1CCN(C2=Nc3ccccc3Nc3ccc(OS(=O)(=O)C(F)(F)F)cc32)CC1` had a free fraction (fraction unbound) at 5 h of 0.0358.
